{"source": "patent US20250041245A1", "about": "“ENDOXIFEN FOR TREATMENT OF CANCERS” (Atossa Therapeutics, Inc., priority 2021, published 2025)", "format_in_all_cases": "cell-based, human", "key": {"[1]": {"system": "patient-derived tumor organoids (PDTOs), breast cancer", "experiment": "Endoxifen screen in patient-derived tumor organoids (PARIS Test): breast cancer", "set-up": "key to Personalization Category: Personalization categories range from High, Good, Moderate, Low, to None; Personalization categories range from High, Good, Moderate, Low, to None; Personalization categories range from High, Good, Moderate, Low, to None; Personalization categories range from High, Good, Moderate, Low, to None; Personalization categories range from High, Good, Moderate, Low, to None; key to Sensitivity Category: Sensitivity categories range from High, Good, Moderate, Low, to None; Sensitivity categories range from High, Good, Moderate, Low, to None; Sensitivity categories range from High, Good, Moderate, Low, to None; Sensitivity categories range from High, Good, Moderate, Low, to None; Sensitivity categories range from High, Good, Moderate, Low, to None", "conditions": "each line one patient sample", "protocol": "(§1) This example describes screening endoxifen in patient-derived tumor organoids. Endoxifen was tested as a single agent on tumor organoids derived from patients diagnosed with various cancer types using a personalized cancer treatment screening assay (PARIS© Test, SEngine Precision Medicine). The screen utilized patient-derived tumor organoids (PDTOs) along with high-throughput drug screening and machine learning-guided data analysis to quantify the efficacy of endoxifen against samples derived from individual patients diagnosed with various cancer types. PDTOs are self-organizing, three-dimensional organoid structures that recapitulate structural, functional, and genomic aspects of in vivo organs. The PDTOs were grown in culture from patient tumor biopsy samples.\n(§2) Fresh patient biopsy samples received following surgery were cleaned and purified. Immune cells (e.g., lymphocytes, blood cells), cancer-associated fibroblasts, and other non-tumor cells were removed to establish pure PDTOs for endoxifen testing. The tumor organoids were grown and expanded by supplying organ- and patient-specific growth factors and nutrients. The PDTOs were treated with increasing concentrations of endoxifen ranging from about 30 nM to about 10 μM, and the drug response was measured using a luminescence readout. A lower luminescence was indicative of a stronger drug response.\n(§3) The results were analyzed using a “SEngine Precision Medicine” (SPM) scoring system to assess the sensitivity and personalization of each tumor organoid to endoxifen. The SPM score correlates with clinical outcomes, such that a higher SPM score for a specific PDTO-drug combination predicts a more favorable clinical outcome following treatment of the corresponding patient with the tested drug.\n(§4) This example describes testing endoxifen efficacy against 17 distinct cancer types in patient-derived tumor organoids (PDTOs). Screening of PDTOs was performed as described in EXAMPLE 1. For each PDTO sample, the drug response was measured using a luminescent readout over a range of endoxifen concentrations. The drug response was evaluated based on the area under the fitted dose response curve (AUC) and the SPM scoring system. AUC values were normalized for each PDTO. Briefly, data points at each drug concentration were first normalized to a negative control, then a dose response drug curve was approximated using a four-parameter logistic model fitted to the normalized data points. The area under the curve was calculated from the normalized curve. Normalization allowed for comparison of AUC values between patient samples. The SPM scores were based on machine learning models that incorporate values for how well the drug kill patient cells (sensitivity metric), the relative drug responses of a patient to all other patients in a sample database (personalization metric), and knowledge of clinical outcomes for patients that had been evaluated with the personalized cancer screening assay (PARIS® Test, SEngine Precision Medicine).\n(§5) The SPM scoring system evaluated whether a PDTO was unresponsive or responsive to endoxifen and the degree of drug response for PDTOs that were responsive to endoxifen. […] The sensitivity category was determined from the sensitivity metric and is a measure of overall cell death of a patient's cells in response to endoxifen at six concentrations. […]"}, "[2]": {"system": "patient-derived tumor organoids (PDTOs), cervical carcinoma", "experiment": "Endoxifen screen in PDTOs: cervical carcinoma", "set-up": "key to Personalization Category: Personalization categories range from High, Good, Moderate, Low, to None; Personalization categories range from High, Good, Moderate, Low, to None; Personalization categories range from High, Good, Moderate, Low, to None; Personalization categories range from High, Good, Moderate, Low, to None; Personalization categories range from High, Good, Moderate, Low, to None; key to Sensitivity Category: Sensitivity categories range from High, Good, Moderate, Low, to None; Sensitivity categories range from High, Good, Moderate, Low, to None; Sensitivity categories range from High, Good, Moderate, Low, to None; Sensitivity categories range from High, Good, Moderate, Low, to None; Sensitivity categories range from High, Good, Moderate, Low, to None; AUC: unit not given beside the values", "protocol": "as §1, §2, §3, §4, §5"}, "[3]": {"system": "patient-derived tumor organoids (PDTOs), ovarian cancer", "experiment": "Endoxifen screen in PDTOs: ovarian cancer", "set-up": "AUC: unit not given beside the values", "conditions": "each line one patient sample", "protocol": "as §1\n(§6) Fresh patient biopsy samples received following surgery were cleaned and purified. Immune cells (e.g., lymphocytes, blood cells), cancer-associated fibroblasts, and other non-tumor cells were removed to establish pure PDTOs for endoxifen testing. […] The PDTOs were treated with increasing concentrations of endoxifen ranging from about 30 nM to about 10 μM, and the drug response was measured using a luminescence readout. A lower luminescence was indicative of a stronger drug response.\n(§7) The results were analyzed using a “SEngine Precision Medicine” (SPM) scoring system to assess the sensitivity and personalization of each tumor organoid to endoxifen. […]\n(§8) This example describes testing endoxifen efficacy against 17 distinct cancer types in patient-derived tumor organoids (PDTOs). […] For each PDTO sample, the drug response was measured using a luminescent readout over a range of endoxifen concentrations. The drug response was evaluated based on the area under the fitted dose response curve (AUC) and the SPM scoring system. […] The area under the curve was calculated from the normalized curve. […]\n(§9) The SPM scoring system evaluated whether a PDTO was unresponsive or responsive to endoxifen and the degree of drug response for PDTOs that were responsive to endoxifen. […]"}, "[4]": {"system": "patient-derived tumor organoids (PDTOs), sarcoma", "experiment": "Endoxifen screen in PDTOs: sarcoma", "set-up": "key to Personalization Category: Personalization categories range from High, Good, Moderate, Low, to None; Personalization categories range from High, Good, Moderate, Low, to None; Personalization categories range from High, Good, Moderate, Low, to None; Personalization categories range from High, Good, Moderate, Low, to None; Personalization categories range from High, Good, Moderate, Low, to None; AUC: unit not given beside the values", "protocol": "as §1, §6, §7, §8, §9"}, "[5]": {"conditions": "normalized area under fitted dose response curve"}}, "note": "Several values for one entry are separate records, joined by “and”; a condition that tells them apart may be missing. Equal entries are not always repeated. Entries after “also recorded” stand apart in the source; their conditions may differ.", "data": [{"molecule": "CC/C(=C(\\c1ccc(O)cc1)c1ccc(OCCNC)cc1)c1ccccc1", "note": "[Endoxifen, 4-hydroxy-N-desmethyltamoxifen]", "values": [{"measurement": "Response Category", "setting": "[1]", "result": "Moderate (moderate response (SPM 10-11)); also recorded: None (no response (SPM 1-8)); also recorded: Low (low response (SPM 9)); also recorded: Good (good response (SPM 12-13)); also recorded: Exceptional (exceptional response (SPM 14-15))"}, {"measurement": "AUC", "setting": "[1]; [5]", "result": "0.8248 and 0.9311 and 0.8639 and 0.6798 and 0.8079 and 0.9835 and 0.8609 and 0.8997 and 0.8847 and 0.9811 and 0.9320 and 0.9911 and 0.9378 and 0.4774 and 0.5912"}, {"measurement": "Sensitivity Category", "setting": "[1]; overall cell death at six concentrations", "result": "Low and None and Moderate and Good"}, {"measurement": "Personalization Category", "setting": "[1]; response relative to other PDTOs", "result": "Moderate and None and Low and High and Good"}, {"measurement": "SPM Score", "setting": "[1]; score range 1-15", "result": "10 and 1 (6×) and 9 (3×) and 13 (2×) and 11 and 4 and 14"}, {"measurement": "IC50", "setting": "[2]; Homo sapiens, Patient 10, four-parameter logistic fit", "result": 3.48, "unit": "µM"}, {"measurement": "Personalization Category", "setting": "[2]; Patient 10", "result": "Good"}, {"measurement": "Sensitivity Category", "setting": "[2]; Patient 10", "result": "Low"}, {"measurement": "AUC", "setting": "[2]; Patient 10, normalized area under fitted dose response curve", "result": 0.8002}, {"measurement": "SPM Score", "setting": "[2]; Patient 10, score range 1-15", "result": 11}, {"measurement": "IC50", "setting": "[3]; four-parameter logistic fit", "result": "9.26 µM and 8.13 µM and 6.7 µM and 4.87 µM and 7.26 µM and 9.3 µM and 3.08 µM and 6.91 µM and 9.33 µM and 3.45 µM and 9.41 µM and 6.22 µM and 9.47 µM and 6.17 µM and 7.21 µM and 6.13 µM and 4.14 µM and 6.06 µM and 3.59 µM and 5.48 µM and 3.69 µM and 4.28 µM and 9.16 µM"}, {"measurement": "AUC", "setting": "[3]; [5]", "result": "0.9109 and 1.0762 and 0.8038 and 0.9291 and 0.9081 and 0.9209 and 1.0105 and 0.8454 and 0.8909 and 0.9267 and 0.9074 and 0.8343 and 0.9838 and 0.8320 and 1.0057 and 0.9637 and 1.1417 and 1.0287 and 0.8785 and 0.8853 and 0.9968 and 0.9220 and 0.8174 and 0.9760 and 0.8739 and 0.8607 and 1.0172 and 0.9895 and 0.9934"}, {"measurement": "SPM Score", "setting": "[3]; score range 1-15", "result": "1 (15×) and 11 (2×) and 5 (3×) and 9 (6×) and 10 (2×) and 4"}, {"measurement": "Personalization Category", "setting": "[4]; patient 21", "result": "None"}, {"measurement": "AUC", "setting": "[4]; patient 21, normalized area under fitted dose response curve", "result": 0.9995}, {"measurement": "SPM Score", "setting": "[4]; patient 21, score range 1-15", "result": 1}]}]}
